Test results published in paper PMC11433014, “In Vitro In Silico Screening Strategy and Mechanism of Novel Tyrosinase Inhibitory Peptides from Nacre of Hyriopsis cumingii” (Marine Drugs, 2024).
Entries after “also recorded” stand apart in the source; their conditions may differ. Where no end group is shown, it is not given here.

Legend:
[1] = test system: superoxide dismutase (SOD); assay: SOD activity in B16F10 cells; assay type: cell-based, mouse; details: 50 μg/mL (highest treatment concentration; Kojic acid 50 μg/mL)
Protocol: (§1) Cell culture and treatment methods were the same as described in Section 3.10. The activities of catalase (CAT), glutathione peroxidase (GSH-Px), and superoxide dismutase (SOD) were determined using the assay kit from Nanjing Jianjian Bioengineering Research Institute (Nanjing, China).

[2] = test system: glutathione peroxidase (GSH-Px); assay: GSH-Px activity in B16F10 cells; assay type: cell-based, mouse; details: 50 μg/mL (highest treatment concentration; Kojic acid 50 μg/mL)
Protocol: as §1

[3] = test system: tyrosinase activity in B16F10 cells; assay: Intracellular tyrosinase activity in B16F10 cells; assay type: cell-based, mouse; details: 50 μg/mL (highest treatment concentration; Kojic acid 50 μg/mL), 24 h, L-DOPA, 475 nm, vs control
Protocol: Cells in the logarithmic growth phase were cultured at a density of 4 × 10^5 cells per well in 6-well plates. Following a 24 h incubation period, the culture supernatant was discarded. Experimental groups were established, including a control group, a positive control group treated with Kojic acid at a concentration of 50 µg/mL [40], and peptide-treated groups at concentrations of 10, 25, and 50 µg/mL. After an additional 24 h of incubation, the cells were lysed, and the resulting cell lysates were subjected to centrifugation at 12,000 rpm for 10 min. The reaction mixture was prepared by combining 50 µL of the cell lysate supernatant, 50 µL of 1 mg/mL L-DOPA, and 50 µL of PBS buffer. This mixture was incubated at 37 °C for 1 h. Subsequently, the level of […] formation was quantified spectrophotometrically at a wavelength of 475 nm. The activity of tyrosinase was reported as a percentage relative to the blank control.

catalase (CAT) = assay: CAT activity in B16F10 cells; assay type: cell-based, mouse; details: 50 μg/mL (highest treatment concentration; Kojic acid 50 μg/mL)
Protocol: as §1

[4] = test system: melanin production in B16F10 cells; assay: Melanin content of B16F10 cells; assay type: cell-based, mouse; details: 50 μg/mL (highest treatment concentration; Kojic acid 50 μg/mL), 48 h, absorbance 405 nm, vs control
Protocol: Cells in the logarithmic growth phase were cultured at a density of 4 × 10^5 cells per well in 6-well plates. Following a 24 h incubation period, the culture supernatant was discarded. Experimental groups were established, including a control group, a positive control group treated with Kojic acid at a concentration of 50 µg/mL [40], and peptide-treated groups at concentrations of 10, 25, and 50 µg/mL. After an additional 24 h of incubation, the cells were lysed, and the resulting cell lysates were subjected to centrifugation at 12,000 rpm for 10 min. The reaction mixture was prepared by combining 50 µL of the cell lysate supernatant, 50 µL of 1 mg/mL L-DOPA, and 50 µL of PBS buffer. This mixture was incubated at 37 °C for 1 h. Subsequently, the level of dopamine formation was quantified spectrophotometrically at a wavelength of 475 nm.
The cell culture stage for melanin content determination was as follows: The cells were washed twice with PBS buffer after 48 h of peptide treatment. Trypsin digestion was performed, and the cells were collected. […] Then, 200 µL of the supernatant was transferred to a 96-well plate, and the absorbance was measured at 405 nm. The melanin content was then expressed as a percentage of the control group.

[5] = DPPH free radical scavenging capacity (kit); details: synthetic peptides, 1 mg/mL; comparison among the three peptides, in words
Protocol: (§2) Use a concentration of 1 mg/mL of the enzymatic hydrolysate to assess the free radical scavenging rate. DPPH and ABTS free radical scavenging capacity assays were conducted using kits from Grace Biotechnology Co., Ltd. (Suzhou, Jiangsu, China). The subsequent determination of the inhibitory rate of peptide tyrosinase synthesis and the antioxidant measurement methods refer to this step.

[6] = ABTS free radical scavenging capacity (kit); details: synthetic peptides, 1 mg/mL; ranking among the three peptides (p < 0.05)
Protocol: as §2

Tyrosinase = target: T1, Tyrosinase (Agaricus bisporus, UniProt C7FF04); assay: Tyrosinase inhibitory activity assay (mushroom tyrosinase, L-tyrosine substrate); assay type: biochemical; details: 0.5 mg/mL L-tyrosine, PBS, 20 μL tyrosinase (500 U/mL), preincubation 37 °C 10 min, reaction 10 min at 37 °C; mean ± SD of at least three experiments
T1 construct: purchased Shanghai Yuanye Biotechnology Co., Ltd. (Shanghai, China)
T1 sequence (C7FF04 1-392): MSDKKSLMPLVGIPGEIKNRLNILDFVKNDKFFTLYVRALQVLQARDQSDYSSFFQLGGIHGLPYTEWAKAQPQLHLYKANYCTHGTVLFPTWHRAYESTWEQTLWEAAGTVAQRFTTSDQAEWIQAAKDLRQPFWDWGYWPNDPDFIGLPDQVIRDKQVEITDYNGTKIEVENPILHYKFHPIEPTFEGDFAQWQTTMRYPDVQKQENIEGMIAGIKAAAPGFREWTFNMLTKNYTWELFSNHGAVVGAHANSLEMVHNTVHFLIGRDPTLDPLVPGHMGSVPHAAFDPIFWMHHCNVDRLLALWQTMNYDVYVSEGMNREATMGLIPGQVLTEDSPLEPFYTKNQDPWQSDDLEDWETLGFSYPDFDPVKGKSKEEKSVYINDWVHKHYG
Protocol: Tyrosinase (from Mushroom, 500 U/mg) and PBS buffer were purchased from Shanghai Yuanye Biotechnology Co., Ltd. (Shanghai, China). L-tyrosine was obtained from Shanghai Macklin Biochemical Technology Co., Ltd. (Shanghai, China).
A solution of L-tyrosine at a concentration of 0.5 mg/mL, along with the sample solution and PBS buffer, was sequentially introduced into a 96-well plate. The mixture was thoroughly homogenized and subsequently incubated at 37 °C for 10 min. Following this incubation, 20 μL of tyrosinase solution (500 U/mL) was added to each well, and the plate was promptly placed in an enzyme marker for a reaction period of (10 min ± 5 s) at 37 °C.

B16F10 cells = assay: Cytotoxicity to B16F10 cells (CCK-8); assay type: cell-based, mouse; details: 10–800 μg/mL
Protocol: B16F10 cells were purchased from Hunan FengHui Biotechnology Co., Ltd. (Changsha, Hunan, China). Cell cultures of B16F10, specifically from generations 10 to 25, were maintained in a medium consisting of DMEM supplemented with 10% fetal bovine serum and 1% antibiotic–antifungal solution, under conditions of 5% CO2 at 37 °C.
Cell viability was evaluated utilizing the Cell Counting Kit-8 (CCK-8) assay. During the logarithmic growth phase, 100 µL of cell suspension, containing 3000 cells per well, was transferred into 96-well plates. Following a 24 h incubation period at 37 °C, the supernatant was discarded. Wells containing 100 µL of medium were designated as blank controls. […]

Molecule	increase of SOD activity [1] [%]	increase of GSH-Px activity [2] [%]	decrease of intracellular tyrosinase activity [3] [%]	increase of CAT activity (catalase (CAT)) [%]	decrease of melanin content [4] [%]	DPPH radical scavenging effect [5]	ABTS radical scavenging ability (ranking) [6]	IC50 (Tyrosinase) [mM]	viability of B16F10 cells (B16F10 cells) [%]	cytotoxicity / viability vs control group (B16F10 cells; in words)
O=c1cc(CO)occ1O [Kojic acid]	68.81	25.56	16.64	32.04	17.39	–	–	–	–	–
GYHFHSYP [GYHFHSYP, Gly-Tyr-His-Phe-His-Ser-Tyr-Pro]	–	–	–	–	–	remained consistent at a concentration of 1 mg/mL (p > 0.05)	GYHFHSYP > YPNPY > YVPGHG (p < 0.05)	> 5	–	–
YPNPY [YPNPY, Tyr-Pro-Asn-Pro-Tyr]	–	–	–	–	–	–	–	0.545 ± 0.028	~100	no significant difference in the viability of B16F10 cells; also recorded: did not exhibit any cytotoxic effects
YVPGHG [YVPGHG, Tyr-Val-Pro-Gly-His-Gly]	–	–	–	–	–	remained consistent at a concentration of 1 mg/mL (p > 0.05)	GYHFHSYP > YPNPY > YVPGHG (p < 0.05)	> 50	–	–
